Laboratory results published in patent publication US9447014B2, “Tromethamine salt of bimatoprost acid in crystalline form, methods for preparation, and methods for use thereof” (ALLERGAN, INC., priority 2012, dated 2016).
Where a name gives a salt, the structure may show the parent alone. Read-outs that look alike come from different tables or passages of the source.

Key:
Assay type in all cases: physicochemical
[1] = physical stability on storage
[2] = gravimetric vapor sorption (GVS) analysis
Source text: At relative humidity above 80% RH, tromethamine salt of bimatoprost acid behaves hygroscopic with a a significant moisture uptake observed. The significant uptake of moisture may be a result of the large specific surface area of the material. On desorption, the adsorbed water was rapidly lost with no equilibrium established. At the end of the gravimetric vapor sorption (GVS) cycle, at 40% RH, the overall sample mass increased by 5 wt %.

[3] = solubility of the tromethamine salt
[4] = dissolution rate compared with the free acid

physical stability ([1]; 25° C./60% RH in open container closure): > 3 months
physical stability ([1]; 40° C./75% RH in closed container closure): > 3 months
GVS analysis: deliquescence ([2]; 90% RH): no deliquescence
GVS analysis: hydrate formation ([2]; 90% RH): no hydrate
overall sample mass increase at the end of the GVS cycle ([2]; end of GVS cycle, at 40% RH): 5 wt %
XRPD re-analysis post GVS analysis (change in crystalline form) ([2]; post GVS analysis): no change in the crystalline Form 1
hygroscopic behaviour (moisture uptake) ([2]; relative humidity above 80% RH): hygroscopic
solubility ([3]; aqueous buffer, at pH 6.5, read-out: solubility): > 250 mg/mL
solubility ([3]; in formulation vehicles, no surfactant needed): ~25 w/v %
SMILES: O=C(O)CCC/C=C/CC1C(O)CC(O)C1/C=C/C(O)CCc1ccccc1 (stereo not shown) [tromethamine salt of bimatoprost acid, tromethamine salt of 7-[3,5-Dihydroxy-2-(3-hydroxy-5-phenyl-pent-1-enyl)-cyclopentyl]-hept-5-enoic acid]
dissolution rate [4]: faster dissolution rate than the free acid
